Assay results published in ChEMBL document CHEMBL4354850, “The Other Angiotensin II Receptor: AT2R as a Therapeutic Target” (J Med Chem, 2020).
Where a SMILES comes first, the peptide text is derived from it.

Key:
[1] = target: T1, Type-2 angiotensin II receptor (Rattus norvegicus, UniProt P35351); assay: Inhibition of rat AT2 receptor
T1 sequence (P35351 whole entry): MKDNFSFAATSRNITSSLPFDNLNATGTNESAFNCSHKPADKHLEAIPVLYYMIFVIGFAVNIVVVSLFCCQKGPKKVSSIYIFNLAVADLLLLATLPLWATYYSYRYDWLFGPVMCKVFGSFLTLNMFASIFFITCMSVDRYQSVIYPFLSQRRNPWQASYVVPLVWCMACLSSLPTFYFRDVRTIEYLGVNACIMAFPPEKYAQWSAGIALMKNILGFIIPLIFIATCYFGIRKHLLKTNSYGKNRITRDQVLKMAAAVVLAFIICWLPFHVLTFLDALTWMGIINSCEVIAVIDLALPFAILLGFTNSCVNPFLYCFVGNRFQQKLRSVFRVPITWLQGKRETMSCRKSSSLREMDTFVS

[2] = target: T2, Type-1 angiotensin II receptor A (Rattus norvegicus, UniProt P25095); assay: Inhibition of rat AT1 receptor
T2 sequence (P25095 whole entry): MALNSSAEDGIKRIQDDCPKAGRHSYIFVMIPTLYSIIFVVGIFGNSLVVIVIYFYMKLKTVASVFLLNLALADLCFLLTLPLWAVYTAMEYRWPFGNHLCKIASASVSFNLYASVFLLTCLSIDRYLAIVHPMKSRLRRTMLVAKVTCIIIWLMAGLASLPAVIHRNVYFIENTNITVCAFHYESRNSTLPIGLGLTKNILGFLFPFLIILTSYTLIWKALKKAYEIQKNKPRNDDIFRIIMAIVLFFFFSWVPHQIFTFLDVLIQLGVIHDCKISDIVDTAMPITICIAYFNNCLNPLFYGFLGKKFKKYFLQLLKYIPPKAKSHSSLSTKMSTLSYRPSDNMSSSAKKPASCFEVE

[3] = Displacement of [125I]Ang II from AT2 receptor in pig uterus membranes; assay type: cell membranes, Sus scrofa
[4] = target: T2, Type-1 angiotensin II receptor A; assay: Displacement of [125I]Ang II from AT1 receptor in rat liver membranes; assay type: cell membranes
[5] = target: T3, Type-1 angiotensin II receptor (Homo sapiens, UniProt P30556); assay: Inhibition of human AT1 receptor
T3 sequence (P30556 whole entry): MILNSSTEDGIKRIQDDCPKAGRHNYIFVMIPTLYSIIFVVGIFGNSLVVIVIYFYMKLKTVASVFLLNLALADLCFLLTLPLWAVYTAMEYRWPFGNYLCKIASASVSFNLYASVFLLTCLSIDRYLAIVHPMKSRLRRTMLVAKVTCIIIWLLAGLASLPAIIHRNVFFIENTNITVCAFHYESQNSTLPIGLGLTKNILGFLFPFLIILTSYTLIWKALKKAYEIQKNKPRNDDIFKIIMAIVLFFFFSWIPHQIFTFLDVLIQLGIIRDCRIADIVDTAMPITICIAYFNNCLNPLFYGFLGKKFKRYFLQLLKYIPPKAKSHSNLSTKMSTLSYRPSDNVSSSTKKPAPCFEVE

[6] = target: T4, Proto-oncogene Mas (Homo sapiens, UniProt P04201); assay: Agonist activity at N-terminal c-Myc tagged human MasR expressed in HEK293T cells assessed as reduction in forskolin-induced cAMP accumulation; assay type: functional, cell-based
T4 sequence (P04201 whole entry): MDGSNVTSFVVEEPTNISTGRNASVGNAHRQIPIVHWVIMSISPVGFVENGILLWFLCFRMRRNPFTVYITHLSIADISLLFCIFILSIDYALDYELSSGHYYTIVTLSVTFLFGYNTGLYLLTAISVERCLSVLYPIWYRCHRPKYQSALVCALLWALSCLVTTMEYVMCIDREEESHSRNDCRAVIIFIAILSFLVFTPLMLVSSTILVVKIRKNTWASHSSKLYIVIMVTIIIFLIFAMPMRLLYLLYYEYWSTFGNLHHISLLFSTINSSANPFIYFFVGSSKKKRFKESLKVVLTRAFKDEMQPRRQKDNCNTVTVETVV

[7] = target: T4, Proto-oncogene Mas; assay: Antagonist activity at N-terminal c-Myc tagged human MasR expressed in HEK293T cells by cAMP accumulation based assay; assay type: functional, cell-based
[8] = target: T2, Type-1 angiotensin II receptor A; assay: Displacement of [125I]Ang II from AT1 receptor in rat SMC membranes incubated for 60 mins by gamma counting method; assay type: cell membranes

COc1ccc2c(c1OCc1ccccc1)CC(C(=O)O)N(C(=O)C(c1ccccc1)c1ccccc1)C2 (stereo not drawn)
IC50 [1]: 0.0752 µM
IC50 [2]: 2900 µM

CCCCOC(=O)NS(=O)(=O)c1sc(CC(C)C)cc1-c1ccc(Cn2c(CC)nc3c(C)cc(C)nc32)cc1
Ki [3]: 0.0028 µM
Ki [4]: 0.0039 µM

CCCCOC(=O)NS(=O)(=O)c1ccc(Cc2cccc(OC)c2)cc1-c1ccc(Cn2c(CC)nc3c(C)cc(C)nc32)cc1
IC50 [3]: 0.101 µM
IC50 [4]: 0.0014 µM

Cc1cc(Cn2cnc3c2C[C@@H](C(=O)O)N(C(=O)C(c2ccccc2)c2ccccc2)C3)ccc1N(C)C
Ki [5]: 0.012 µM

CCNC(=O)NS(=O)(=O)c1sc(CC(C)C)cc1-c1ccc(Cn2c(-c3ccccc3)nc(OC)c2C=O)cc1
IC50 [6]: 0.021 µM

COc1ccc2c(c1OCc1ccccc1)C[C@H](C(=O)O)N(C(=O)C(c1ccccc1)c1ccccc1)C2
IC50 [5]: 1.1 µM

CC[C@H](C)[C@H](NC(=O)[C@H](Cc1ccc(O)cc1)NC(=O)[C@@H](NC(=O)[C@H](CCCNC(=N)N)NC(=O)[C@@H](N)CC(=O)O)C(C)C)C(=O)N[C@@H](Cc1cnc[nH]1)C(=O)N[C@H](C)C(=O)O (HELM PEPTIDE1{D.R.V.Y.I.H.[dA]}$$$$V2.0)
IC50 [7]: 0.0003 µM

CC[C@H](C)[C@H](NC(=O)[C@@H]1CCCN1C(=O)[C@H](Cc1c[nH]cn1)NC(=O)[C@H](CCCCNC(=O)[C@H](CCCN=C(N)N)NC(=O)OCc1ccccc1)NC(=O)[C@H](Cc1ccc(O)cc1)NC(=O)c1cccnc1)C(=O)O (HELM PEPTIDE1{[O=C(c1cccnc1)[*:2]].Y.K.H.P.I}|PEPTIDE2{[O=C(OCc1ccccc1)[*:2]].R}$PEPTIDE1,PEPTIDE2,3:R3-2:R2$$$V2.0)
Ki [8]: 1.7 µM

CCCCOC(=O)NS(=O)(=O)c1sc(CC(C)C)cc1-c1ccc(Cn2ccnc2)cc1 [BULOXIBUTID]
Ki [4]: > 10 µM

COc1ccc2c(c1OCc1ccccc1)C[C@@H](C(=O)O)N(C(=O)C(c1ccccc1)c1ccccc1)C2 [OLODANRIGAN]
IC50 [5]: 0.039 µM
